Source: ChEMBL document CHEMBL6087385, “Synthesis and biological evaluation of Ribo 7-N/O/S pyrimidine 9-deaza C-nucleoside analogs as new antiviral agents for inhibiting HCV RNA-dependent RNA polymerases” (Eur J Med Chem, 2024)

Columns and labels:
[1] = Drug metabolism in human Hepatocyte cells assessed as triphosphate metabolite formation at 10 uM measured upto 24 hrs by HPLC-MS analysis; type: ADME, cell-based; details: hepatocytes
[2] = Drug level in Sprague-Dawley rat liver assessed as triphosphate metabolite concentration at 2 mg/kg, iv measured after 1 hr in presence of ATP by LC-MS/MS analysis; type: ADME, organism-based; details: in vivo, read-out: Ct
[3] = test system: Hepatitis C virus; experiment: Anti-viral activity against HCV genotype 2a infected in 2aLucNeo-25 cells; type: functional, organism-based, Hepacivirus hominis
[4] = Tmax in female mouse at 5 mg/kg, po by reverse phase chromatography; type: ADME, organism-based; details: in vivo
[5] = Tmax in Cynomolgus monkey at 1 mg/kg, iv by reverse phase chromatography; type: ADME, organism-based, Macaca fascicularis; details: in vivo
[6] = Cmax in female mouse at 1 mg/kg, iv by reverse phase chromatography; type: ADME, organism-based; details: in vivo
[7] = Cmax in female mouse at 5 mg/kg, po by reverse phase chromatography; type: ADME, organism-based; details: in vivo
[8] = Cmax in Sprague-Dawley rat at 5 mg/kg, po by reverse phase chromatography; type: ADME, organism-based; details: in vivo
[9] = Cmax in Cynomolgus monkey at 1 mg/kg, iv by reverse phase chromatography; type: ADME, organism-based, Macaca fascicularis; details: in vivo, time 7 day
[10] = Half life in female mouse at 5 mg/kg, po by reverse phase chromatography; type: ADME, organism-based; details: in vivo
[11] = Half life in Sprague-Dawley rat at 1 mg/kg, iv by reverse phase chromatography; type: ADME, organism-based; details: in vivo
[12] = Half life in Sprague-Dawley rat at 10 mg/kg, po by reverse phase chromatography; type: ADME, organism-based; details: in vivo
[13] = Half life in Cynomolgus monkey at 1 mg/kg, iv by reverse phase chromatography; type: ADME, organism-based, Macaca fascicularis; details: in vivo
[14] = Half life in Cynomolgus monkey at 10 mg/kg, po administered for 7 days by reverse phase chromatography; type: ADME, organism-based, Macaca fascicularis; details: in vivo, time 7 day
[15] = Volume of distribution in female mouse at 1 mg/kg, iv by reverse phase chromatography; type: ADME, organism-based; details: in vivo
[16] = Clearance in female mouse at 1 mg/kg, iv by reverse phase chromatography; type: ADME, organism-based; details: in vivo
[17] = Clearance in Sprague-Dawley rat at 1 mg/kg, iv by reverse phase chromatography; type: ADME, organism-based; details: in vivo
[18] = Clearance in Cynomolgus monkey at 1 mg/kg, iv by reverse phase chromatography; type: ADME, organism-based, Macaca fascicularis; details: in vivo
[19] = AUC in female mouse at 1 mg/kg, iv by reverse phase chromatography; type: ADME, organism-based; details: in vivo
[20] = AUC in Cynomolgus monkey at 1 mg/kg, iv by reverse phase chromatography; type: ADME, organism-based, Macaca fascicularis; details: in vivo
[21] = AUC (0 to infinity) in female mouse at 1 mg/kg, iv by reverse phase chromatography; type: ADME, organism-based; details: in vivo
[22] = AUC (0 to infinity) in Sprague-Dawley rat at 1 mg/kg, iv by reverse phase chromatography; type: ADME, organism-based; details: in vivo
[23] = AUC (0 to infinity) in Sprague-Dawley rat at 5 mg/kg, po by reverse phase chromatography; type: ADME, organism-based; details: in vivo
[24] = Oral bioavailability in Sprague-Dawley rat at 5 mg/kg by reverse phase chromatography; type: ADME, organism-based; details: in vivo
[25] = Drug absorption in human Caco-2 cells; type: ADME, cell-based
[26] = Metabolic stability in dog liver microsome assessed as half life in presence of NADPH; type: ADME, Canis lupus familiaris; details: liver microsomes
[27] = Metabolic stability in Non human primate liver microsome assessed as half life in presence of NADPH; type: ADME; details: liver microsomes
[28] = Metabolic stability in human liver microsome assessed as half life in presence of NADPH; type: ADME; details: liver microsomes
[29] = Metabolic stability in cryopreserved rat hepatocyte assessed as half life in presence of NADPH; type: ADME, cell-based; details: cryopreserved hepatocytes
[30] = Metabolic stability in cryopreserved dog hepatocyte assessed as half life in presence of NADPH; type: ADME, cell-based, Canis lupus familiaris; details: cryopreserved hepatocytes
[31] = Toxicity in rat assessed as effect on respiratory endpoint at 1 to 9 mg/kg, po; type: organism-based; details: in vivo, dose 1-9 mg/kg
[32] = Toxicity in po dosed rat assessed as no observable adverse effect level; type: organism-based; details: in vivo
[33] = Toxicity in dog assessed as effect on […] function at 1 to 5 mg/kg, po administered for 3 hr post dose by electrocardiogram analysis; type: organism-based, Canis lupus familiaris; details: in vivo, dose 1-5 mg/kg
[34] = Toxicity in dog assessed as increase in QTc interval at 1 to 5 mg/kg, po measured after 3 hrs; type: organism-based, Canis lupus familiaris; details: in vivo, dose 1-5 mg/kg
[35] = Genotoxicity in human Lymphocyte assessed as induction of chromosomal aberration upto 3000 ug/ml; type: toxicity, cell-based; details: dose < 3000 µg/ml
[36] = Genotoxicity in mouse L5178Y cells assessed as increase in forward mutation at thymidine kinase locus measured after 4 hrs; type: toxicity, cell-based
[37] = Genotoxicity in mouse L5178Y cells assessed as increase in forward mutation at thymidine kinase locus; type: toxicity, cell-based
[38] = Toxicity in rat assessed as mortality at 1 to 9 mg/kg, po; type: organism-based; details: in vivo, dose 1-9 mg/kg
[39] = Toxicity in rat assessed as effect on respiratory measures at 1 to 9 mg/kg, po; type: organism-based; details: in vivo, dose 1-9 mg/kg
[40] = Toxicity in Sprague-Dawley rat assessed as weight loss at 250 mg/kg, po administered as single dose and measured after 14 days; type: organism-based; details: in vivo, 336 h, time 14 day
[41] = Toxicity in Sprague-Dawley rat assessed as piloerection at 90 mg/kg, po administered as single dose and measured after 14 days; type: organism-based; details: in vivo, 336 h, time 14 day
[42] = Toxicity in Sprague-Dawley rat assessed as lethargy at 150 mg/kg, po administered as single dose and measured after 14 days; type: organism-based; details: in vivo, 336 h, time 14 day
[43] = Toxicity in Sprague-Dawley rat assessed as anogenital staining at 90 mg/kg, po administered as single dose and measured after 14 days; type: organism-based; details: in vivo, 336 h, time 14 day
[44] = Toxicity in Sprague-Dawley rat assessed as eyes and nares staining at 90 mg/kg, po administered as single dose and measured after 14 days; type: organism-based; details: in vivo, 336 h, time 14 day
[45] = Toxicity in Sprague-Dawley rat assessed as eyes and nares staining at 100 mg/kg, po administered as single dose and measured after 14 days; type: organism-based; details: in vivo, 336 h, time 14 day
[46] = Toxicity in Sprague-Dawley rat assessed as diarrhea at 250 mg/kg, po administered as single dose and measured after 14 days; type: organism-based; details: in vivo, 336 h, time 14 day
[47] = Toxicity in Sprague-Dawley rat assessed as macroscopic examination at necroscopy at 100 mg/kg, po administered as single dose and measured after 14 days; type: organism-based; details: in vivo, 336 h, time 14 day
[48] = Toxicity in Sprague-Dawley rat assessed as macroscopic examination at necroscopy at 250 mg/kg, po administered as single dose and measured after 14 days; type: organism-based; details: in vivo, 336 h, time 14 day
[49] = Toxicity in cynomolgus monkey assessed as weight loss at 100 to 500 mg/kg, po administered as single dose; type: organism-based, Macaca fascicularis; details: in vivo, dose 100-500 mg/kg
[50] = Toxicity in Cynomolgus monkey assessed as change in ECG at 100 to 500 mg/kg, po administered as single dose; type: organism-based, Macaca fascicularis; details: in vivo, dose 100-500 mg/kg
[51] = Toxicity in Cynomolgus monkey assessed as emesis at 100 mg/kg, po administered as single dose; type: organism-based, Macaca fascicularis; details: in vivo
[52] = Toxicity in Cynomolgus monkey assessed as emesis at 250 to 500 mg/kg, po administered as single dose; type: organism-based, Macaca fascicularis; details: in vivo, dose 250-500 mg/kg
[53] = Toxicity in Cynomolgus monkey assessed as emesis at 100 mg/kg, po administered twice a day; type: organism-based, Macaca fascicularis; details: in vivo

With `C[C@@]1(O)[C@H](O)[C@@H](CO)O[C@H]1c1coc2c(N)ncnc12` as the molecule, how does the Drug metabolism [1] read?
The Drug metabolism was “metabolite_detected”.

What about the concentration [2] of the same molecule?
Its concentration is 22.6 µM.

What about the EC50 [3] of the same molecule?
Its EC50 is over 50 µM.

What about the Tmax [4] of the same molecule?
Its Tmax is 0.5 h.

What about the Tmax [5] of the same molecule?
Its Tmax is 1.8 min.

What about the Cmax [6] of the same molecule?
Its Cmax is 1130 ng/mL.

And the Cmax [7]?
Its Cmax is 1060 ng/mL.

And the Cmax [8]?
The Cmax was 593 ng/mL.

And the Cmax [9]?
Its Cmax is 3200 ng/mL.

And the half-life [10]?
The half-life was 16.6 h.

And the half-life [11]?
Its half-life is 28.4 h.

And the half-life [12]?
The half-life was 8.86 h.

And the half-life [13]?
The half-life was 24 h.

What about the half-life [14] of the same molecule?
Its half-life is 26.3 h.

And the Vd [15]?
Its Vd is 22.4 L/kg.

And the clearance [16]?
The clearance was 11.6 mL/min/kg.

And the clearance [17]?
The clearance was 17.6 mL/min/kg.

What about the clearance [18] of the same molecule?
The clearance was 8.56 mL/min/kg.

What about the AUC [19] of the same molecule?
The AUC was 866 ng·h/mL.

What about the AUC [20] of the same molecule?
Its AUC is 1930 ng·h/mL.

And the AUC(0-inf) [21]?
The AUC(0-inf) was 1440 ng·h/mL.

And the AUC(0-inf) [22]?
The AUC(0-inf) was 947 ng·h/mL.

And the AUC(0-inf) [23]?
The AUC(0-inf) was 2150 ng·h/mL.

And the bioavailability [24]?
Its bioavailability is 55%.

What about the Drug absorption [25] of the same molecule?
The Drug absorption was “Not_active”.

What about the half-life [26] of the same molecule?
Its half-life is over 1.67 h.

And the half-life [27]?
Its half-life is over 1.67 h.

And the half-life [28]?
Its half-life is over 1.67 h.

What about the half-life [29] of the same molecule?
Its half-life is over 1 h.

What about the half-life [30] of the same molecule?
Its half-life is over 1 h.

And the Activity [31]?
Its Activity is “Non-toxic”.

And the NOAEL [32]?
The NOAEL was at most 9 mg/kg.

What about the Activity [33] of the same molecule?
Its Activity is “Non-toxic”.

And the Activity [34]?
The Activity was “Non-toxic”.

What about the Activity [35] of the same molecule?
The Activity was “Non-toxic”.

And the Activity [36]?
The Activity was “Toxic”.

What about the Activity [37] of the same molecule?
The Activity was “Non-toxic”.

What about the Activity [38] of the same molecule?
The Activity was “Non-toxic”.

What about the Activity [39] of the same molecule?
Its Activity is “Non-toxic”.

And the Activity [40]?
Its Activity is “Non-toxic”.

What about the Activity [41] of the same molecule?
Its Activity is “Non-toxic”.

And the Activity [42]?
Its Activity is “Toxic”.

What about the Activity [43] of the same molecule?
Its Activity is “Non-toxic”.

And the Activity [44]?
Its Activity is “Non-toxic”.

And the Activity [45]?
The Activity was “Non-toxic”.

What about the Activity [46] of the same molecule?
Its Activity is “Non-toxic”.

What about the Activity [47] of the same molecule?
Its Activity is “Non-toxic”.

What about the Activity [48] of the same molecule?
Its Activity is “Toxic”.

And the Activity [49]?
The Activity was “Non-toxic”.

What about the Activity [50] of the same molecule?
The Activity was “Non-toxic”.

And the Activity [51]?
Its Activity is “Non-toxic”.

And the Activity [52]?
Its Activity is “Toxic”.

And the Activity [53]?
Its Activity is “Non-toxic”.
